IC50 data for 2 compounds are collected here from ChEMBL document CHEMBL1201862, “PubChem BioAssay data set” (2004).

Active and inactive are the calls of the source. Rule as the data show it: actives have a measured IC50 and inactives only a lower limit.

The target of this assay is Envelope glycoprotein gp160 (Human immunodeficiency virus 1, UniProt Q6QLK5). Put plainly: cell-free HIV fusion peptide-binding blockers – biochemical, uHTS, fluorescence dequenching, […] (AID 1986).
Envelope glycoprotein gp160, sequence (Q6QLK5 whole entry, the tested form may be a part): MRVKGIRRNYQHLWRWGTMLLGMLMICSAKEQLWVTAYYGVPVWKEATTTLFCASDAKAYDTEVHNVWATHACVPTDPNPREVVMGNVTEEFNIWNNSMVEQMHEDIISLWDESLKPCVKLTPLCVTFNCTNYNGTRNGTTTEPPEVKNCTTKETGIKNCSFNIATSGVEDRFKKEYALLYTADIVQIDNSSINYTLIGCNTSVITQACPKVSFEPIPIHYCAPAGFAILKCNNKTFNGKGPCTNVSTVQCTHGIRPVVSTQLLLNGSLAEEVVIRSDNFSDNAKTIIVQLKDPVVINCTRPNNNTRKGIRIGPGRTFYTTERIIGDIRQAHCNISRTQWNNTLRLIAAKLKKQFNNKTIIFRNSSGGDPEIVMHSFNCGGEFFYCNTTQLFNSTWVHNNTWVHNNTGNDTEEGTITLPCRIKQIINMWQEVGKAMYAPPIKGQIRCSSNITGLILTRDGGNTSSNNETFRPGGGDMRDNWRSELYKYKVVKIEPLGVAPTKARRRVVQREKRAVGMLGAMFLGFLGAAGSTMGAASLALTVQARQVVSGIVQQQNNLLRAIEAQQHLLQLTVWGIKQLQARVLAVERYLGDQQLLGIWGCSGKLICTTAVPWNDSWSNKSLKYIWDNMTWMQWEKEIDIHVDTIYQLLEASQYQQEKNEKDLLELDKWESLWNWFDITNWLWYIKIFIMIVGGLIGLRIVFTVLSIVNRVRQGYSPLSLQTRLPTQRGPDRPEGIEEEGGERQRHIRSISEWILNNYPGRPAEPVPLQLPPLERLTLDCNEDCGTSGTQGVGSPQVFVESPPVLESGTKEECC

For `CC(/C=C1\SC(=S)N(CCCC(=O)Nc2ccc(C(=O)O)cc2)C1=O)=C\c1ccccc1`, the half-maximal inhibitory concentration (IC50) (as a rule, the concentration that gives 50% inhibition) is 17.2 µM (active). The result for `CCCCN1C(=O)/C(=C/C=C/c2ccco2)C(=O)NC1=S` reads 5.14 µM (active).
